Source: ChEMBL document CHEMBL5465560, “Selectivity Literature for EUbOPEN Chemogenomic Library” (2024)
Each block holds one compound with its values, some of them ahead of it.

Assays:
[1] = biological target: Dual specificity protein kinase CLK1 (Homo sapiens, UniProt P49759); test: Selectivity interaction (KinomeScan (DiscoverX)) EUB0001079a CLK1; conditions: at 1 µM
[2] = biological target: CDK6/cyclin D2 (Homo sapiens) (UniProt Q00534+P30279); test: Selectivity interaction (Millipore kinase profiler) EUB0000124b CDK6; assay type: protein-complex assay; conditions: at 10 µM
[3] = biological target: Cyclin-dependent kinase 7 (Homo sapiens, UniProt P50613); test: Selectivity interaction (KinomeScan (DiscoverX)) EUB0000607a CDK7; conditions: at 10 µM
[4] = biological target: Fibroblast growth factor receptor 4 (Homo sapiens, UniProt P22455); test: Selectivity interaction (KinomeScan (DiscoverX)) EUB0000607a FGFR4; conditions: at 10 µM
Sequence of Fibroblast growth factor receptor 4 (P22455 22-802 limits assumed): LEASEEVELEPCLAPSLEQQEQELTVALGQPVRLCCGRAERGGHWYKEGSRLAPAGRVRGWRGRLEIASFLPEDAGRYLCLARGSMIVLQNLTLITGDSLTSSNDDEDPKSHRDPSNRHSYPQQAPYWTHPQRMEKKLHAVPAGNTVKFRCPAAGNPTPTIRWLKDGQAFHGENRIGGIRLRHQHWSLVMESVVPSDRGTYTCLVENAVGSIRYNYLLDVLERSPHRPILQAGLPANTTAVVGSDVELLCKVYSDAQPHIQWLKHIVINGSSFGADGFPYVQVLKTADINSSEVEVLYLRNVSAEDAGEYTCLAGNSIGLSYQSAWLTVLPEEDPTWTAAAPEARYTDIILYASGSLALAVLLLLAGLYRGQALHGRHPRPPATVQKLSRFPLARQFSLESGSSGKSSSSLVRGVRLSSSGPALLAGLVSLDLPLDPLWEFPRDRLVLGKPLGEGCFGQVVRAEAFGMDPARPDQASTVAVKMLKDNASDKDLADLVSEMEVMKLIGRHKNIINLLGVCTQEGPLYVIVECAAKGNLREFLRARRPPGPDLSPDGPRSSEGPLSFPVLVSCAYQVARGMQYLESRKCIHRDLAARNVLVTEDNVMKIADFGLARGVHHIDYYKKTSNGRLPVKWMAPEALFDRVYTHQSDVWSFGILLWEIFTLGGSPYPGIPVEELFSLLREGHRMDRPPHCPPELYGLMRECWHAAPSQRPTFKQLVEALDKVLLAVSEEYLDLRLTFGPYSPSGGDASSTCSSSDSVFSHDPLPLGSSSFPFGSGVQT

[5] = biological target: Serine/threonine-protein kinase 10 (Homo sapiens) (UniProt O94804); test: Selectivity interaction (ActivX KiNativ screen (ex vivo kinase selectivity in human PBMCs)) EUB0001619a STK10; assay type: cell-based; conditions: PBMC, at 1 µM
Sequence of Serine/threonine-protein kinase 10 (Homo sapiens) (O94804 whole entry, looked up): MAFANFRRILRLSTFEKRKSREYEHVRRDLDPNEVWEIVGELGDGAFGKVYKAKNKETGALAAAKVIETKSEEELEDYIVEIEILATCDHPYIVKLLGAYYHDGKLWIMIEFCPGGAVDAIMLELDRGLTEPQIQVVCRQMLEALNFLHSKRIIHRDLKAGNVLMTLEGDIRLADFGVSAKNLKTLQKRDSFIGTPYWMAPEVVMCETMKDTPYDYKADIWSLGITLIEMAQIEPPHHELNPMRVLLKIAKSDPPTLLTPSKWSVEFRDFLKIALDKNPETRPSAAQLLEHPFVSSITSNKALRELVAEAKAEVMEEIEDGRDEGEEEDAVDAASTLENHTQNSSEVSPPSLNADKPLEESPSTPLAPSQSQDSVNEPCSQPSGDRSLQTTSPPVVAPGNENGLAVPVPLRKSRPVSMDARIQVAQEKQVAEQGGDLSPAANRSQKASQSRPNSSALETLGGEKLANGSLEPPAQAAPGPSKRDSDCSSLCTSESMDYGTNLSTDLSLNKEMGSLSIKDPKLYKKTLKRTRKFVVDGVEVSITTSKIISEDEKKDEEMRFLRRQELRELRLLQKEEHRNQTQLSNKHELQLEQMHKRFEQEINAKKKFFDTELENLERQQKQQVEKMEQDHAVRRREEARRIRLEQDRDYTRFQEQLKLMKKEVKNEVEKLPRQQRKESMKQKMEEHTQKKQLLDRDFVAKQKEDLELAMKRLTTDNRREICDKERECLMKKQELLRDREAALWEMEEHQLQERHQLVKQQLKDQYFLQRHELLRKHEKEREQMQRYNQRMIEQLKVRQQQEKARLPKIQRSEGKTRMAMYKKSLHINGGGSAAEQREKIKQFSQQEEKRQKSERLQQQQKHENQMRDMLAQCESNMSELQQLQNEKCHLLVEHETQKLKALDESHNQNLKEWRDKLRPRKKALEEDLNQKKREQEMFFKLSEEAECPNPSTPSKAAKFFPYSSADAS

[6] = biological target: Serine/threonine-protein kinase B-raf (Homo sapiens) (UniProt P15056); test: (§1) Selectivity interaction (KinomeScan (DiscoverX)) EUB0000045b BRAF
Sequence of Serine/threonine-protein kinase B-raf (Homo sapiens) (P15056 whole entry): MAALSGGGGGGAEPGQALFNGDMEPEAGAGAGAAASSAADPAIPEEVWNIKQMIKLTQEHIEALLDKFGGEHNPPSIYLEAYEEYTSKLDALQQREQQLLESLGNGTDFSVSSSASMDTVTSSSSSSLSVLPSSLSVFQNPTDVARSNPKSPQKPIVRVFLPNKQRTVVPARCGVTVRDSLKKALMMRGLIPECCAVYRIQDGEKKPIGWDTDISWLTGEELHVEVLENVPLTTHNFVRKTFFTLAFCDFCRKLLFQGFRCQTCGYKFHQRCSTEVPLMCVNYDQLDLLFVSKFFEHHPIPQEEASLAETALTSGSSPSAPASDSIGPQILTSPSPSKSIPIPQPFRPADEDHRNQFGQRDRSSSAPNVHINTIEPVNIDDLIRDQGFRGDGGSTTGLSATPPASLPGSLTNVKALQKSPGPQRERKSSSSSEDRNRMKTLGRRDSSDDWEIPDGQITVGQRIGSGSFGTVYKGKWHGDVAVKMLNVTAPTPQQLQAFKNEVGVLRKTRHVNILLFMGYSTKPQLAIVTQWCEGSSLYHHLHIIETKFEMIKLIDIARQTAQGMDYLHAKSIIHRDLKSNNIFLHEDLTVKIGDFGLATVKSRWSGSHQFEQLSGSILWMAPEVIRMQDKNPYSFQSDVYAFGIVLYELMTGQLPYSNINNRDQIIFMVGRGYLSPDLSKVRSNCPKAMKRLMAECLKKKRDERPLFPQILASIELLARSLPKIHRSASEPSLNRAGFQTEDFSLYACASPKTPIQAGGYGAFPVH

[7] = test system: Serine/threonine-protein kinase B-raf (Homo sapiens), P15056 [V600E]; test: as §1
Sequence of Serine/threonine-protein kinase B-raf (Homo sapiens), P15056 [V600E] (P15056 whole entry V600E): as the sequence (P15056 whole entry) above, with V600E counted along it

[8] = biological target: T1, Serine/threonine-protein kinase DCLK3 (Homo sapiens) (UniProt Q9C098); test: Selectivity interaction (KinomeScan (DiscoverX)) EUB0000045b DCLK3
T1 sequence (whole entry): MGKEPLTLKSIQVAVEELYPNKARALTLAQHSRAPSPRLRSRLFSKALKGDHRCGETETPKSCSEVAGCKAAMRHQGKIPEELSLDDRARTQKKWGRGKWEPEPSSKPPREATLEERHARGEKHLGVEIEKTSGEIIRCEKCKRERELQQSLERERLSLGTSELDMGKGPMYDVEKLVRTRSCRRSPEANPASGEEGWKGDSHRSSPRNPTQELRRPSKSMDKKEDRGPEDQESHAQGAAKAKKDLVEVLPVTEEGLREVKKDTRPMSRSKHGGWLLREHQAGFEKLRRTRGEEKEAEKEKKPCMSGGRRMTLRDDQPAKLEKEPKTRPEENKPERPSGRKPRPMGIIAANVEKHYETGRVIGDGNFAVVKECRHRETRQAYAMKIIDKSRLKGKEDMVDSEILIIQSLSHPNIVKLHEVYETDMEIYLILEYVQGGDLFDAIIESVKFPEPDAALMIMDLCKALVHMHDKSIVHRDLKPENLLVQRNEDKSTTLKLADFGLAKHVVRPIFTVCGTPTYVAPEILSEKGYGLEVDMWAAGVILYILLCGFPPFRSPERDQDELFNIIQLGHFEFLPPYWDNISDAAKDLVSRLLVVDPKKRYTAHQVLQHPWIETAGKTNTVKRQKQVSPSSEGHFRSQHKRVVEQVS

[9] = biological target: TRAF2 and NCK-interacting protein kinase (Homo sapiens) (UniProt Q9UKE5); test: Selectivity interaction (KinomeScan (DiscoverX)) EUB0000045b TNIK
Sequence of TRAF2 and NCK-interacting protein kinase (Homo sapiens) (Q9UKE5 whole entry, looked up): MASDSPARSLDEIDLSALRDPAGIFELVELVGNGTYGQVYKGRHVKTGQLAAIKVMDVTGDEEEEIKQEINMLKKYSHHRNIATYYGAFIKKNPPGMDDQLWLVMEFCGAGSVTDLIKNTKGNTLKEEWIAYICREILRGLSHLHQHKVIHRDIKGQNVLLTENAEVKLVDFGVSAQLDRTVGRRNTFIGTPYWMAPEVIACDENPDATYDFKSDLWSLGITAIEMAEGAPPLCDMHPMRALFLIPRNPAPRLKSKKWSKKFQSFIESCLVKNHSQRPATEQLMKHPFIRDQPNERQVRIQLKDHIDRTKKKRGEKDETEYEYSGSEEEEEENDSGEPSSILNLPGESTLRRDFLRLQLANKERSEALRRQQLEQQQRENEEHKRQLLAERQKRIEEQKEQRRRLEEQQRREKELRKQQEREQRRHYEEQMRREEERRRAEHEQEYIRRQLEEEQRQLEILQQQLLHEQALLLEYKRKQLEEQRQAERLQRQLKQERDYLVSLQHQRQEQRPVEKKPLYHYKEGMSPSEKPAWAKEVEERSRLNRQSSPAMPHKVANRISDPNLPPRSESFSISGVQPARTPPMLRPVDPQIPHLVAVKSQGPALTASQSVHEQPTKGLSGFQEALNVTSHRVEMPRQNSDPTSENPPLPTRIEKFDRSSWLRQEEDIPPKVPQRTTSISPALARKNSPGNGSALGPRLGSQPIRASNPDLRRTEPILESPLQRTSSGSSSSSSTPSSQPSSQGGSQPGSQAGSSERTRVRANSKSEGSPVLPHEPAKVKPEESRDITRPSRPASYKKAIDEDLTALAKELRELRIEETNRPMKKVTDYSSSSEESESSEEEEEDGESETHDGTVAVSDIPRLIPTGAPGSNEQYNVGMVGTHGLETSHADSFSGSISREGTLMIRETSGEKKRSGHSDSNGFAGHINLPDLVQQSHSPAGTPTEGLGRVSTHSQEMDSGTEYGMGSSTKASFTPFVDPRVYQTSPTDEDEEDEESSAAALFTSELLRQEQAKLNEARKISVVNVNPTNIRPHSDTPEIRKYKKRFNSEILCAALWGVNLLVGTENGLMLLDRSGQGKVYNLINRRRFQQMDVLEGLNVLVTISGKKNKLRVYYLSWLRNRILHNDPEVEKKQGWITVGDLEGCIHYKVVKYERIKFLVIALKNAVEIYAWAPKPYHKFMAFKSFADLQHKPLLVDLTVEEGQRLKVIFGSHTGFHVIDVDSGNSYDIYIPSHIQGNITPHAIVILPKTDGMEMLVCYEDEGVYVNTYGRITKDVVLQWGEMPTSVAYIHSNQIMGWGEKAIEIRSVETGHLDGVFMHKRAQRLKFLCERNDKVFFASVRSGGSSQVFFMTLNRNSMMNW

[10] = biological target: T2, Mitogen-activated protein kinase kinase kinase 2 (Homo sapiens) (UniProt Q9Y2U5); test: Selectivity interaction (Kinase panel (KiNativ target engagement assay in Jurkat cells)) EUB0001635a MAP3K2; assay type: cell-based; conditions: at 1 µM
T2 sequence (whole entry): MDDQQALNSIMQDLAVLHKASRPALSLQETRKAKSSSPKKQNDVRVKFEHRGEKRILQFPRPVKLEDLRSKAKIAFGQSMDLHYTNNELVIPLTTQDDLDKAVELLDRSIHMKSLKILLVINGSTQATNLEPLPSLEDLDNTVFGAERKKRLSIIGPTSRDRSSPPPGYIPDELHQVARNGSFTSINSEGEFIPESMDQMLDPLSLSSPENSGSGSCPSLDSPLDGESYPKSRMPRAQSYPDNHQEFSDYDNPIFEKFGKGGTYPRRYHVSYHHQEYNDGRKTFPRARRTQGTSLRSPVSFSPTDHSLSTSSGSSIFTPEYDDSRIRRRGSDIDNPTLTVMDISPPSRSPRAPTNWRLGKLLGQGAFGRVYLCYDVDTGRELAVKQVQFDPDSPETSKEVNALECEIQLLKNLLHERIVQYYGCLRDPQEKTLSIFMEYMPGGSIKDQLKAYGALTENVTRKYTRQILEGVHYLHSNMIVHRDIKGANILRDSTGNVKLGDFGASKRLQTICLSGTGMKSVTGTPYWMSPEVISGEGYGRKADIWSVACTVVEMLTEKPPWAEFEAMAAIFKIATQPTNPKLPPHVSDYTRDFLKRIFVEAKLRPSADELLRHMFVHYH

[11] = biological target: Homeodomain-interacting protein kinase 1 (Homo sapiens, UniProt Q86Z02); conditions: at 10 µM
[12] = biological target: Vascular endothelial growth factor receptor 1 (Homo sapiens) (UniProt P17948); test: Selectivity interaction (Kinase panel (Invitrogen)) EUB0000639a FLT1; conditions: at 200 nM
[13] = biological target: Mitogen-activated protein kinase 1 (Homo sapiens, UniProt P28482); test: Selectivity interaction (Kinase panel (33PanQinase(R) Activity Assay)) EUB0000877a MAPK1
[14] = biological target: Sodium-dependent serotonin transporter (Homo sapiens, UniProt P31645); test: Selectivity interaction (Panel of kinases, GPCRs, ion channels and transporters (enzymatic assay)) EUB0000266bCl SLC6A4
Sequence of Sodium-dependent serotonin transporter (P31645 whole entry, looked up): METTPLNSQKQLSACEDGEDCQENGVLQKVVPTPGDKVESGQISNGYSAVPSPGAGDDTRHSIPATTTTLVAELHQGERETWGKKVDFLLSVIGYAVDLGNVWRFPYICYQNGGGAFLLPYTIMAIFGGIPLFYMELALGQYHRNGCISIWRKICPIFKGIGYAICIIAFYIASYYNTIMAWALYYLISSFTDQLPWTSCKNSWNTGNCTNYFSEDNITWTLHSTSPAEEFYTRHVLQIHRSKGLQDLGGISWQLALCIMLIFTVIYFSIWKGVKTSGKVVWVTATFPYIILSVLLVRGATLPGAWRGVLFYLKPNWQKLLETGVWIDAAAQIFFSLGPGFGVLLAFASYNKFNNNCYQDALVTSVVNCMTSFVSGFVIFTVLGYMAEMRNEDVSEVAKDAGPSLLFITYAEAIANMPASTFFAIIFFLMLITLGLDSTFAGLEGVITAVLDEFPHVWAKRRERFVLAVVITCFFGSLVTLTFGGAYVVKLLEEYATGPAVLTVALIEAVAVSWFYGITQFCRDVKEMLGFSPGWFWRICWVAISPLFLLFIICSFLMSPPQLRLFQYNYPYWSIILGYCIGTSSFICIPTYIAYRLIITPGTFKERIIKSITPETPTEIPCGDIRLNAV

[15] = biological target: Activin receptor type-2B (Homo sapiens) (UniProt Q13705); test: Selectivity interaction (KinomeScan (DiscoverX)) EUB0000666a ACVR2B; conditions: at 10 µM
[16] = biological target: Serine/threonine-protein kinase MRCK alpha (Homo sapiens) (UniProt Q5VT25); test: Selectivity interaction (Ambit KINOMEscan) EUB0000092b CDC42BPA; conditions: at 10 µM

Sequence of Dual specificity protein kinase CLK1 (P49759 whole entry, looked up): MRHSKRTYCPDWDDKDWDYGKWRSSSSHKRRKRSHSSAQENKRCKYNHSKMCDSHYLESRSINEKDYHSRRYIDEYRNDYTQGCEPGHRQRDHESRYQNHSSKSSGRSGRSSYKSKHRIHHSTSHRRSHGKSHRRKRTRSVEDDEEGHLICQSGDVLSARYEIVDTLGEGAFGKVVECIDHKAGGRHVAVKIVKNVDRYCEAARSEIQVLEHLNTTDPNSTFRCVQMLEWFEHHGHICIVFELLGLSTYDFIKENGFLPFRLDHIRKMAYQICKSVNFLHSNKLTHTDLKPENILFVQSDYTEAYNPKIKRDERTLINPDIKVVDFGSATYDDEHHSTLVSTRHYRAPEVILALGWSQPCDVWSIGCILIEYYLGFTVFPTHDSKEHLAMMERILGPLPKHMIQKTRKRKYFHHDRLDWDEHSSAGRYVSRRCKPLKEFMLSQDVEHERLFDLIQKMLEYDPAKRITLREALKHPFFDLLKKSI

SMILES: Nc1cnc(N2CCc3cc(S(=O)(=O)Nc4c(F)cc(Cl)cc4F)cc(N4CCCC4=O)c32)nc1 [TP-020n]
% of control [1]: 85%

% of control [2]: 107%
SMILES: CC(=O)Nc1cccc(-n2c(=O)n(C3CC3)c(=O)c3c(Nc4ccc(I)cc4F)n(C)c(=O)c(C)c32)c1

SMILES: CNC(=O)Nc1ccc(-c2nc(N3CC4CCC(C3)O4)c3cnn(C4CCC5(CC4)OCCO5)c3n2)cc1
% of control [3]: 88% | % of control [4]: 62%

SMILES: N#Cc1cccc(-c2c[nH]c3ncnc(N4CCOCC4)c23)c1
% of inhibition [5]: 79%

SMILES: C=CC(=O)Nc1cc(-n2c(=O)ccc3cnc4ccc(-c5ccc(NS(C)(=O)=O)cc5)cc4c32)ccc1C
% of control ([6]; at 1 µM): 100% | % of control ([6]; at 10 µM): 100% | % of control ([7]; at 1 µM): 100% | % of control ([7]; at 10 µM): 100% | % of control ([8]; at 1 µM): 94% | % of control ([8]; at 10 µM): 78% | % of control ([9]; at 1 µM): 96% | % of control ([9]; at 10 µM): 100%

SMILES: C=CC(=O)Nc1ccc(C(=O)Nc2[nH]nc3c2CN(C(=O)N[C@H](CN(C)C)c2ccccc2)C3(C)C)cc1
% of engagement ([10]; Selectivity number of off-targets 0.0, Selectivity number of targets 233.0, Source Knowledge https://www.sciencedirect.com/science/article/pii/S2451945619300674?via%3Dihub): -1.5% | % of engagement [10]: -1.9%

SMILES: Cc1cc([C@@H](C)Nc2ccccc2C(=O)O)c2nc(N3CCOCC3)cc(=O)n2c1 [AZD-6482]
% of control [11]: 100%

% of inhibition [12]: 3.08%
SMILES: CC[C@@H]1[C@H](F)C(=O)N[C@@H]1COc1nccc2cc(C(N)=O)c(OC)cc12 [ZIMLOVISERTIB]

IC50 [13]: > 10 µM
SMILES: CCC(=O)N1CC[C@H](Nc2ncnc3c2CN(c2cnc(OC)c(C(F)(F)F)c2)CC3)C1 [LENIOLISIB]

pXC50 [14]: 4.7 M
SMILES: CCn1c(-c2nc3cc(C(=O)N4CCCC(N)C4)ccc3n2C)cc2ccccc21 (stereo unspecified)

SMILES: O=C(NOC[C@H](O)CO)c1ccc(F)c(F)c1Nc1ccc(I)cc1F
% of control [15]: 66%

SMILES: CCC(=O)N1CCN(c2ccc(-n3c(=O)ccc4cnc5ccc(-c6cnc7ccccc7c6)cc5c43)cc2C(F)(F)F)CC1
% of control [16]: 0.65%
